Laboratory results as given in ChEMBL document CHEMBL4130480, “Serinolamides and Lyngbyabellins from an Okeania sp. Cyanobacterium Collected from the Red Sea” (J Nat Prod, 2017).
Active and inactive are the calls of the source. The calls are words filed in the database; no cut-off is given here.

Tests used:
Amphibalanus amphitrite = assay: Antifouling activity against cypris stage of Amphibalanus amphitrite larvae assessed as inhibition of larval settlement at < 1 ug/ml after 48 to 120 hrs by microscopic analysis; type: functional, organism-based
MCF7 = assay: Growth inhibition of human MCF7 cells after 72 hrs by MTT assay; type: functional; conditions: MCF7, 72 h
N2a = assay: Growth inhibition of mouse Neuro2a cells after 72 hrs by MTT assay; type: functional
NCI-H460 = assay: Growth inhibition of human H460 cells after 72 hrs by MTT assay; type: functional; conditions: NCI-H460, 72 h

GI50 (MCF7) [µM]	GI50 (NCI-H460) [µM]	SMILES	inhibition (Amphibalanus amphitrite)	GI50 (N2a) [µM]
–	–	CCCCCCCCCCCCC/C=C(\C)C(=O)N[C@H](COC)COC(C)=O	Active	–
120	2.2	C[C@@H]1C(=O)O[C@@H](C(C)(C)O)c2nc(cs2)C(=O)OC[C@@H](O)c2nc(cs2)C(=O)O[C@H]1CCCC(C)(Cl)Cl	–	4.8
9	–	CCCC(=O)N[C@@H](CC(C)C)[C@H](O)CC(=O)OC[C@@H](O)c1nc(C(=O)O[C@@H](CCCC(C)(Cl)Cl)[C@H](C)C(=O)O[C@H](c2nc(C(=O)OC)cs2)C(C)(C)O)cs1	–	–
–	–	CCCCCCCCCCCCC/C=C(\C)C(=O)N[C@@H](CO)COC	Active	–
> 160	–	COC(=O)c1csc([C@@H](OC(=O)[C@@H](C)[C@H](CCCC(C)(Cl)Cl)OC(=O)c2csc([C@H](O)CO)n2)C(C)(C)O)n1	–	–
